According to ChEMBL document CHEMBL4130359, “Indazole-based ligands for estrogen-related receptor α as potential anti-diabetic agents” (Eur J Med Chem, 2017):
Activity calls are given as the source filed them. The rule behind the calls is not given here.

How the values were obtained:
[1] = system: Rattus norvegicus; experiment: Toxicity in Zucker rat sub-chronic fa/fa prediabetic model assessed as change in body weight at 10 mg/kg, po qd for 29 days measured on day 1 to 29 during compound dosing (reference value: 140 +/- 7 g); assay type: organism-based; details: in vivo, 696 h
[2] = species on record: Homo sapiens; experiment: Inhibition of picrotoxin binding to chloride channel (unknown origin) at 10 uM relative to control
[3] = target: Sodium channel protein type 2 subunit alpha (Homo sapiens) (UniProt Q99250); experiment: Activity at human Nav1.2 expressed in CHOK1 cells assessed as effect on channel current up to 10 uM by patch clamp method; assay type: cell-based
Sodium channel protein type 2 subunit alpha (Homo sapiens), sequence (Q99250 whole entry, looked up): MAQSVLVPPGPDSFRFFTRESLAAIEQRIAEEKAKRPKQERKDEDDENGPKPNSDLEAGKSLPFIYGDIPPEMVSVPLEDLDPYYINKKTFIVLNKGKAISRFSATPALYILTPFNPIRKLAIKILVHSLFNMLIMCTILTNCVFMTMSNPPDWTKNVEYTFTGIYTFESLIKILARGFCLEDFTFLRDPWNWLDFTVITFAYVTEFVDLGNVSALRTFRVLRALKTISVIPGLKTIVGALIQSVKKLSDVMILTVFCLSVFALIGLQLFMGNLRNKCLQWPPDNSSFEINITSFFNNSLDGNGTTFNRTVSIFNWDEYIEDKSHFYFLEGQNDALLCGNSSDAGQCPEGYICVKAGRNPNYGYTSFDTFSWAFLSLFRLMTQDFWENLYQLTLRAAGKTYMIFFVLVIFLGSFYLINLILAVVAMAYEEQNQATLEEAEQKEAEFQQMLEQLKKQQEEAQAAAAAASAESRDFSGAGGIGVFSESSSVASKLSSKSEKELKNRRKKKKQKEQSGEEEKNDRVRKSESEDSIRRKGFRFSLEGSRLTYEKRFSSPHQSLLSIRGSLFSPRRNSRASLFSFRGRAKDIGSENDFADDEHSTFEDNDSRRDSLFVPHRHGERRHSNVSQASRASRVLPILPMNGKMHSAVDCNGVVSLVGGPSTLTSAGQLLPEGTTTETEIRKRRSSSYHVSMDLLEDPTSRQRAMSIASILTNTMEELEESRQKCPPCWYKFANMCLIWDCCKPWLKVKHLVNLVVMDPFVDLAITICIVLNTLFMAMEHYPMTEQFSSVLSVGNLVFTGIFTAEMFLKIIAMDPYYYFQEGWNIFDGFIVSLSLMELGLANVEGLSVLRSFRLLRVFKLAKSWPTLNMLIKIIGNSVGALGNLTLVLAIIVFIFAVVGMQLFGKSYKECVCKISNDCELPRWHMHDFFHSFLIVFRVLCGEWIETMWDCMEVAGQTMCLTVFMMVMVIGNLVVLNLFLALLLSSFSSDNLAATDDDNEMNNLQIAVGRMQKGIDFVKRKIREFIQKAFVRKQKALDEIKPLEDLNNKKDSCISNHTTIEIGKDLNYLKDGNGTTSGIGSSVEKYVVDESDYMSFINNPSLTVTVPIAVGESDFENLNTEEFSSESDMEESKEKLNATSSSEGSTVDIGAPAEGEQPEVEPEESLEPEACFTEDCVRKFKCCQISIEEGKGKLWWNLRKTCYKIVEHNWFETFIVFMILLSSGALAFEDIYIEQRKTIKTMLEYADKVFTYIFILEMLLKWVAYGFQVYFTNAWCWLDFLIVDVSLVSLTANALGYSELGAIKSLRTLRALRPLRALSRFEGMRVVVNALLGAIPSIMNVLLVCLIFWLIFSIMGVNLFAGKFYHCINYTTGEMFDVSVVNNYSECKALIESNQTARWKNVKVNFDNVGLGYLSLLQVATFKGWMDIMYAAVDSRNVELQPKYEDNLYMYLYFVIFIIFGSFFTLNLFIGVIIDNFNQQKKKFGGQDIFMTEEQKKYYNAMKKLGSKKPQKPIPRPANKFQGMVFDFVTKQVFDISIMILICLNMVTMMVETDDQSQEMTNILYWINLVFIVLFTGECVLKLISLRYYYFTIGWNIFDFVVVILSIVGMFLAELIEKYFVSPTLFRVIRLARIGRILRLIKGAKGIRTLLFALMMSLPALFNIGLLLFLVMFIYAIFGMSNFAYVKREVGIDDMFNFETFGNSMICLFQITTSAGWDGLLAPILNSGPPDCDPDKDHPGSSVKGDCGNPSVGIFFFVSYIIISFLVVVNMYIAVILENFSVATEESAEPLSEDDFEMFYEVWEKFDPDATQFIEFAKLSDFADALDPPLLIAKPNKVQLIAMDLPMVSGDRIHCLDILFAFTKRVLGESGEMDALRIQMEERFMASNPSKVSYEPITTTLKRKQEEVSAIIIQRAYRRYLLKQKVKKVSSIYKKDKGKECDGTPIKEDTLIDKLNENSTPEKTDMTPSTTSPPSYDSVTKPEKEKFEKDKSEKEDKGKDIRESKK

[4] = system: Rattus norvegicus; experiment: Toxicity in […] model assessed as serum AST level at 3 mg/kg, po qd for 31 days measured on day 32 (reference value: 180 +/- 26 U/L); assay type: organism-based; details: in vivo, 744 h
[5] = system: Rattus norvegicus; experiment: Antidiabetic activity in Zucker rat sub-chronic fa/fa prediabetic model assessed as blood insulin AUC (0 to 120 min) at 3 mg/kg, po qd for 31 days measured on day 29 post dose (reference value: 1503 +/- 160 ug.min/L); assay type: functional, organism-based; design: dose 3 mg/kg, time < 2 hr
[6] = system: Rattus norvegicus; experiment: Toxicity in Zucker rat sub-chronic fa/fa prediabetic model assessed as body weight at 3 mg/kg, po qd for 29 days measured on day 29 post last dose (reference value: 533 +/- 10 g); assay type: organism-based; details: in vivo, 696 h
[7] = system: Rattus norvegicus; experiment: Toxicity in […] chronic ob/ob model assessed as change in body weight at 3 mg/kg, po qd for 28 days measured on day 1 to 28 during compound dosing (reference value: 9.9 +/- 1.27 g); assay type: organism-based; details: in vivo, 672 h
[8] = system: Rattus norvegicus; experiment: Antidiabetic activity in Zucker rat sub-chronic fa/fa prediabetic model assessed as fasting blood insulin level at 50 mg/kg, po qd for 31 days measured on day 29 post dose (reference value: 8.5 +/- 1.4 ug/L); assay type: functional
[9] = system: Rattus norvegicus; assay type: functional, Zucker
[10] = system: Rattus norvegicus; experiment: Toxicity in […] chronic ob/ob model assessed as serum creatinine level at 50 mg/kg, po qd for 31 days measured on day 32 (reference value: 0.55 +/- 0.018 mg/dl); assay type: organism-based; details: in vivo, 744 h
[11] = system: Rattus norvegicus; experiment: Effect on ATP5C1 gene expression in epididymal white adipose tissue of Zucker rat sub-chronic fa/fa prediabetic model at 10 mg/kg, po qd for 15 days by microarray analysis relative to control; assay type: functional
[12] = system: Rattus norvegicus; experiment: Toxicity in Zucker rat sub-chronic fa/fa prediabetic model assessed as serum creatinine level at 3 mg/kg, po qd for 31 days measured on day 32 (reference value: 0.71 +/- 0.07 mg/dl); assay type: organism-based; details: in vivo, 744 h
[13] = system: Rattus norvegicus; experiment: Toxicity in Zucker rat sub-chronic fa/fa prediabetic model assessed as serum cholesterol level at 10 mg/kg, po qd for 31 days measured on day 32 (reference value: 295 +/- 91 mg/dl); assay type: organism-based; details: in vivo, 744 h
[14] = system: Rattus norvegicus; experiment: Toxicity in Zucker rat sub-chronic fa/fa prediabetic model assessed as serum cholesterol level at 1 mg/kg, po qd for 31 days measured on day 32 (reference value: 295 +/- 91 mg/dl); assay type: organism-based; details: in vivo, 744 h
[15] = system: Rattus norvegicus; experiment: Effect on DLST gene expression in epididymal white adipose tissue of Zucker rat sub-chronic fa/fa prediabetic model at 10 mg/kg, po qd for 15 days by microarray analysis relative to control; assay type: functional
[16] = system: Rattus norvegicus; experiment: Toxicity in Zucker rat sub-chronic fa/fa prediabetic model assessed as brown adipose tissue weight at 3 mg/kg, po qd for 31 days measured on day 32 (reference value: 2.1 +/- 0.3 g); assay type: organism-based; details: in vivo, 744 h
[17] = system: Rattus norvegicus; experiment: Effect on ABCG1 gene expression in epididymal white adipose tissue of Zucker rat sub-chronic fa/fa prediabetic model at 10 mg/kg, po qd for 15 days by microarray analysis relative to control; assay type: functional
[18] = system: Rattus norvegicus; experiment: Toxicity in […] chronic ob/ob model assessed as brown adipose tissue weight at 3 mg/kg, po qd for 31 days measured on day 32 (reference value: 0.59 +/- 0.05 g); assay type: organism-based; details: in vivo, 744 h
[19] = system: Rattus norvegicus; experiment: Antidiabetic activity in Zucker rat sub-chronic fa/fa prediabetic model assessed as fasting blood glucose level at 3 mg/kg, po qd for 31 days measured on day 29 post dose (reference value: 163 +/- 9.2 mg/dl); assay type: functional
[20] = system: Rattus norvegicus; experiment: Effect on NDUFB9 gene expression in epididymal white adipose tissue of Zucker rat sub-chronic fa/fa prediabetic model at 10 mg/kg, po qd for 15 days by microarray analysis relative to control; assay type: functional
[21] = system: Rattus norvegicus; experiment: Toxicity in […] chronic ob/ob model assessed as change in body weight at 10 mg/kg, po qd for 28 days measured on day 1 to 28 during compound dosing (reference value: 9.9 +/- 1.27 g); assay type: organism-based; details: in vivo, 672 h
[22] = species on record: Cavia porcellus; experiment: Inhibition of veratridine binding to Dunkin Hartley guinea pig atria sodium channel site 2 (unknown origin) at 10 uM relative to control
[23] = system: Rattus norvegicus; experiment: Toxicity in […] chronic ob/ob model assessed as epididymal white adipose tissue weight at 50 mg/kg, po qd for 31 days measured on day 32 (reference value: 3.92 +/- 0.14 g); assay type: organism-based; details: in vivo, 744 h
[24] = system: Rattus norvegicus; experiment: Effect on BAD gene expression in epididymal white adipose tissue of Zucker rat sub-chronic fa/fa prediabetic model at 10 mg/kg, po qd for 15 days by microarray analysis relative to control; assay type: functional
[25] = target: Estrogen receptor (Homo sapiens, UniProt P03372); experiment: Inhibition of fluormone ES2 green binding to recombinant full length human ERalpha expressed in insect cells by fluorescence polarization assay
Estrogen receptor, sequence (P03372 whole entry): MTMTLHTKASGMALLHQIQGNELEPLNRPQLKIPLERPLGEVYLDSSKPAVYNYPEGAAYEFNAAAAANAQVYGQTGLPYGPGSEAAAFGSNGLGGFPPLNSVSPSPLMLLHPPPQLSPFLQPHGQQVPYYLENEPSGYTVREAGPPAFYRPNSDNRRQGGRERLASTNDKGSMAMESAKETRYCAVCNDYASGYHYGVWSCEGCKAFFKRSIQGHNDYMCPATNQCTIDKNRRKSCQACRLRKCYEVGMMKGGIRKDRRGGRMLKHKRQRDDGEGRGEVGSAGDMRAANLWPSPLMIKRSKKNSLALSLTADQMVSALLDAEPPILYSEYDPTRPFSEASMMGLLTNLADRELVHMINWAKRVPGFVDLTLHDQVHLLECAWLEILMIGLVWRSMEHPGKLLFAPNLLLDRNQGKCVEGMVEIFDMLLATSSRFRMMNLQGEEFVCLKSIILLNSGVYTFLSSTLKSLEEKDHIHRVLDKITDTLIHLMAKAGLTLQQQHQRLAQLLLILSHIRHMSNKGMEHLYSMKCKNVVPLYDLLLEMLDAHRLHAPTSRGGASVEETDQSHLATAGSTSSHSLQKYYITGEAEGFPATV

[26] = system: Rattus norvegicus; experiment: Toxicity in […] chronic ob/ob model assessed as epididymal white adipose tissue weight at 10 mg/kg, po qd for 31 days measured on day 32 (reference value: 3.92 +/- 0.14 g); assay type: organism-based; details: in vivo, 744 h
[27] = target: Estrogen-related receptor gamma (Homo sapiens, UniProt P62508); experiment: Antagonist activity at ERRgamma (unknown origin) assessed as inhibition of co-activator peptide recruitment by TR-FRET assay
Estrogen-related receptor gamma, sequence (P62508 whole entry): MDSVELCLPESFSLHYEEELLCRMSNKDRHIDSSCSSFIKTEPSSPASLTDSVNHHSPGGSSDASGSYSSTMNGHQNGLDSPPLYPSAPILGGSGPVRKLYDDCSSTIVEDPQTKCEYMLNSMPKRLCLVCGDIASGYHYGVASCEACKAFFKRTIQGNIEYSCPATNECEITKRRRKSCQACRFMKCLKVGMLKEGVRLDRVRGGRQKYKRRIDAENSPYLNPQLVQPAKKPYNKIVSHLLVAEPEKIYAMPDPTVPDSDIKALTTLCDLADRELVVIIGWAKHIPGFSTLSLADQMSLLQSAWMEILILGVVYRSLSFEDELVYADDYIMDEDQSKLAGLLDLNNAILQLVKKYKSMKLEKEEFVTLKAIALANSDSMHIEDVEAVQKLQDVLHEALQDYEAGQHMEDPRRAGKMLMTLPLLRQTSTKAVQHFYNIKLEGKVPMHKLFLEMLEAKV

[28] = system: Rattus norvegicus; experiment: Effect on ACSS1 gene expression in epididymal white adipose tissue of Zucker rat sub-chronic fa/fa prediabetic model at 10 mg/kg, po qd for 15 days by microarray analysis relative to control; assay type: functional
[29] = system: Rattus norvegicus; experiment: Effect on PLCB1 gene expression in epididymal white adipose tissue of Zucker rat sub-chronic fa/fa prediabetic model at 10 mg/kg, po qd for 15 days by microarray analysis relative to control; assay type: functional
[30] = system: Rattus norvegicus; experiment: Antidiabetic activity in […] chronic ob/ob model assessed as increase in plasma adiponectin level at 3 mg/kg, po qd for 31 days measured on day 32 by ELISA relative to control; assay type: functional
[31] = system: Rattus norvegicus; experiment: Effect on HSD17B4 gene expression in epididymal white adipose tissue of Zucker rat sub-chronic fa/fa prediabetic model at 10 mg/kg, po qd for 15 days by microarray analysis relative to control; assay type: functional
[32] = system: Rattus norvegicus; experiment: Toxicity in Zucker rat sub-chronic fa/fa prediabetic model assessed as serum BUN level at 1 mg/kg, po qd for 31 days measured on day 32 (reference value: 28.3 +/- […]); assay type: organism-based; details: in vivo, 744 h

Question: Which Activity [1] does the source give for `CN1CC[C@@H](N2C(=O)S/C(=C\c3ccc4c(cnn4Cc4ccc(Cl)cc4C(F)(F)F)c3)C2=O)[C@H](F)C1` here?
Answer: 150 g

Question: What about the inhibition [2] of the same molecule?
Answer: 50%

Question: And the Activity [3]?
Answer: inactive

Question: And the Activity [4]?
Answer: 211 U/L

Question: What about the AUC [5] of the same molecule?
Answer: 16.7 ng·h/mL

Question: What about the Activity [6] of the same molecule?
Answer: 561 g

Question: What about the Activity [7] of the same molecule?
Answer: 6.3 g

Question: And the Activity [8]?
Answer: 0.7 µg/L

Question: And the Activity [9]?
Answer: 56958 mg·min/dL

Question: And the Activity [10]?
Answer: 0.43 mg/dL

Question: What about the “fold change (FC)” value [11] of the same molecule?
Answer: 1.239

Question: What about the Activity [12] of the same molecule?
Answer: 0.56 mg/dL

Question: What about the Activity [13] of the same molecule?
Answer: 197 mg/dL

Question: What about the Activity [14] of the same molecule?
Answer: 328 mg/dL

Question: What about the “fold change (FC)” value [15] of the same molecule?
Answer: 1.352

Question: What about the Activity [16] of the same molecule?
Answer: 4.4 g

Question: And the “fold change (FC)” value [17]?
Answer: 1.488

Question: What about the Activity [18] of the same molecule?
Answer: 0.61 g

Question: And the Activity [19]?
Answer: 118 mg/dL

Question: What about the “fold change (FC)” value [20] of the same molecule?
Answer: 1.214

Question: And the Activity [21]?
Answer: 8.7 g

Question: And the inhibition [22]?
Answer: 69%

Question: And the Activity [23]?
Answer: 2.95 g

Question: What about the “fold change (FC)” value [24] of the same molecule?
Answer: -1.216

Question: And the IC50 [25]?
Answer: > 10 µM

Question: And the Activity [26]?
Answer: 3.29 g

Question: And the IC50 [27]?
Answer: > 10 µM

Question: And the “fold change (FC)” value [28]?
Answer: -1.893

Question: What about the “fold change (FC)” value [29] of the same molecule?
Answer: 1.58

Question: What about the “fold change (FC)” value [30] of the same molecule?
Answer: 1.4

Question: And the “fold change (FC)” value [31]?
Answer: 1.226

Question: What about the Activity [32] of the same molecule?
Answer: 26.9 mg/dL
